Data published in PMC12042115 (mLife, 2025).
Where two headings read alike, the source gives them in different places.

System: wild‐type BCG cells
Format: cell-based, M. bovis BCG
Conditions: for Mean Ratio: GDI5755_2d vs DMSO_2d; for Mean Ratio / Mean Ratio (GDI5755_2d vs DMSO_2d): up-regulated; for Mean_Ratio (GDI5755_3d vs DMSO_3d): down-regulated, 3 d; for Mean Ratio (GDI5755_2d vs DMSO_2d): 2d

O=C(Oc1ccc(Cl)cc1)c1ccc(N2CCOCC2)c([N+](=O)[O-])c1 [GDI‐5755]
Mean Ratio (protein A0A0H3M8Y9 Cyclase): 1.26 | Mean Ratio (protein A0A0H3M9B9 Acetoacetate decarboxylase): 1.28 | Mean Ratio (protein A0A0H3M9C3 DUF3039 domain-containing protein): 1.28 | Mean Ratio (protein A0A0H3M9D8 Possible conserved membrane alanine rich protein): 1.31 | Mean Ratio (protein A0A0H3M9I1 Probable conserved secreted protein): 1.30 | Mean Ratio (protein A0A0H3M9I4 Probable membrane glycine and proline rich protein): 1.25 | Mean Ratio (protein A0A0H3M9K0 Probable penicillin-binding protein pbpA): 1.25 | Mean_Ratio (GDI5755_3d vs DMSO_3d) (protein A0A0H3M9N6, BCG_0093 (Rv0062), Glucanase): 0.7 | Mean_Ratio (GDI5755_3d vs DMSO_3d) (protein A0A0H3M9Q0, BCG_2848c (Rv2828A), COGs COG0840): 0.7 | Mean Ratio (protein A0A0H3M9S4 Carrier domain-containing protein): 1.26 | Mean Ratio (GDI5755_2d vs DMSO_2d) (protein A0A0H3M9U5 Phosphatidate cytidylyltransferase): 1.38 | Mean_Ratio (GDI5755_3d vs DMSO_3d) (protein A0A0H3M9Z8, BCG_2971c (Rv2950c), Probable fatty-acid-CoA ligase fadD29): 0.7 | Mean Ratio (protein A0A0H3M9Z9 Probable conserved transmembrane protein rich in alanine and arginine and proline): 1.28 | Mean Ratio (protein A0A0H3M143 peptidoglycan glycosyltransferase): 1.26 | Mean_Ratio (GDI5755_3d vs DMSO_3d) (protein A0A0H3M233, BCG_0693c (Rv0644c), Methoxy mycolic acid synthase 2 mmaA2): 0.7 | Mean_Ratio (GDI5755_3d vs DMSO_3d) (protein A0A0H3M245, BCG_0704 (Rv0655), Possible ribonucleotide-transport ATP-binding protein ABC transporter mkl): 0.7 | Mean Ratio (GDI5755_2d vs DMSO_2d) (protein A0A0H3M252 Probable glutamine-binding lipoprotein glnH): 1.33 | Mean Ratio (GDI5755_2d vs DMSO_2d) (protein A0A0H3M331 Uncharacterized protein): 1.34 | Mean_Ratio (GDI5755_3d vs DMSO_3d) (protein A0A0H3M363, BCG_0875c (Rv0822c), Cell envelope-associated transcriptional attenuator LytR-CpsA-Psr, subfamily A1): 0.752 | Mean_Ratio (GDI5755_3d vs DMSO_3d) (protein A0A0H3M469, BCG_1204c (MRA_1152), Probable enoyl-CoA hydratase echA10): 0.742 | Mean_Ratio (GDI5755_3d vs DMSO_3d) (protein A0A0H3M476, BCG_0711c (Rv0662c), Ribbon-helix-helix protein CopG domain-containing protein): 0.7 | Mean Ratio (protein A0A0H3M482 Conserved transmembrane protein): 1.29 | Mean_Ratio (GDI5755_3d vs DMSO_3d) (protein A0A0H3M495, BCG_1238c (Rv1175c), Probable NADPH dependent 2,4-dienoyl-CoA reductase fadH): 0.758 | Mean Ratio (protein A0A0H3M519 Probable conserved lipoprotein): 1.28 | Mean Ratio (protein A0A0H3M628 Probable lipoprotein lppP): 1.31 | Mean Ratio (GDI5755_2d vs DMSO_2d) (protein A0A0H3M639 Probable metal cation transporter P-type atpase G ctpG): 1.33 | Mean Ratio (GDI5755_2d vs DMSO_2d) (protein A0A0H3M660 Conserved membrane protein): 1.39 | Mean Ratio (protein A0A0H3M672 Sirohydrochlorin cobaltochelatase): 1.28 | Mean Ratio (protein A0A0H3M707 Probable conserved integral membrane alanine and valine and leucine rich protein): 1.26 | Mean_Ratio (GDI5755_3d vs DMSO_3d) (protein A0A0H3M735, BCG_2390c (Rv2376c), Low molecular weight antigen cfp2): 0.7 | Mean_Ratio (GDI5755_3d vs DMSO_3d) (protein A0A0H3M760, BCG_0066 (Rv0035), Probable fatty-acid-coa ligase fadD34): 0.7 | Mean Ratio (protein A0A0H3M769 Lipid/polyisoprenoid-binding YceI-like domain-containing protein): 1.28 | Mean_Ratio (GDI5755_3d vs DMSO_3d) (protein A0A0H3M827, BCG_2840c (Rv2821c), CRISPR system Cms endoribonuclease Csm3): 0.7 | Mean_Ratio (GDI5755_3d vs DMSO_3d) (protein A0A0H3M844, BCG_2251 (Rv2234), Phosphotyrosine protein phosphatase ptpA): 0.7 | Mean Ratio (protein A0A0H3M847 Probable conserved transmembrane alanine rich protein): 1.26 | Mean_Ratio (GDI5755_3d vs DMSO_3d) (protein A0A0H3M848, BCG_3111 (Rv3086), alcohol dehydrogenase, adhD): 0.761 | Mean Ratio (GDI5755_2d vs DMSO_2d) (protein A0A0H3M855 Acyl carrier protein): 1.34 | Mean Ratio (protein A0A0H3M918 Protein-export membrane protein SecF): 1.28 | Mean_Ratio (GDI5755_3d vs DMSO_3d) (protein A0A0H3M922, BCG_3278c (Rv3249c), Possible transcriptional regulatory protein (Probably tetR-family)): 0.757 | Mean_Ratio (GDI5755_3d vs DMSO_3d) (protein A0A0H3M964, BCG_1004c (Rv0950c), Peptidase M23 domain-containing protein): 0.7 | Mean Ratio (protein A0A0H3M969 HNH nuclease domain-containing protein): 1.26 | Mean_Ratio (GDI5755_3d vs DMSO_3d) (protein A0A0H3M984, BCG_3389c (Rv3323c), Probable moaD-moaE fusion protein moaX): 0.756 | Mean Ratio (GDI5755_2d vs DMSO_2d) (protein A0A0H3MA04 ATP-dependent zinc metalloprotease FtsH): 1.34 | Mean_Ratio (GDI5755_3d vs DMSO_3d) (protein A0A0H3MA19, BCG_0251 (Rv0214), Probable fatty-acid-CoA ligase fadD4): 0.739 | Mean_Ratio (GDI5755_3d vs DMSO_3d) (protein A0A0H3MA36, BCG_3704c (Rv3646c), DNA topoisomerase 1): 0.7 | Mean_Ratio (GDI5755_3d vs DMSO_3d) (protein A0A0H3MA81, BCG_1461c (Rv1400c), Probable lipase lipH): 0.751 | Mean Ratio (protein A0A0H3MAA3 Possible conserved membrane protein): 1.25 | Mean_Ratio (GDI5755_3d vs DMSO_3d) (protein A0A0H3MAA7, BCG_0352 (Rv0312), Conserved hypothetical proline and threonine rich protein): 0.739 | Mean Ratio (GDI5755_2d vs DMSO_2d) (protein A0A0H3MAB2 Conserved membrane protein): 1.33 | Mean_Ratio (GDI5755_3d vs DMSO_3d) (protein A0A0H3MAC6, BCG_0385c (Rv0346c), l-asparagine permease ansP2): 0.7 | Mean Ratio (GDI5755_2d vs DMSO_2d) (protein A0A0H3MAC8 Possible conserved transmembrane protein): 1.38 | Mean_Ratio (GDI5755_3d vs DMSO_3d) (protein A0A0H3MAD2, BCG_0398c (Rv0360c), DUF3151 domain-containing protein): 0.7 | Mean Ratio (protein A0A0H3MAE2 Probable carbon monoxyde dehydrogenase (Medium chain)): 1.31 | Mean Ratio (protein A0A0H3MAF8 Serine/threonine-protein kinase PknG): 1.26 | Mean_Ratio (GDI5755_3d vs DMSO_3d) (protein A0A0H3MAI2, BCG_0498 (Rv0458), Probable aldehyde dehydrogenase): 0.7 | Mean_Ratio (GDI5755_3d vs DMSO_3d) (protein A0A0H3MAI6, BCG_3192 (Rv3168), Aminoglycoside phosphotransferase domain-containing protein): 0.7 | Mean_Ratio (GDI5755_3d vs DMSO_3d) (protein A0A0H3MAK6, BCG_0543 (Rv0500A), Helix-turn-helix domain-containing protein): 0.757 | Mean_Ratio (GDI5755_3d vs DMSO_3d) (protein A0A0H3MAL3, BCG_3212c (Rv3190c), Restriction endonuclease): 0.7 | Mean Ratio (protein A0A0H3MAP0 Conserved hypothetical alanine valine rich protein): 1.28 | Mean Ratio (protein A0A0H3MAW6 Uncharacterized protein): 1.27 | Mean Ratio (protein A0A0H3MAY5 (BCG_0774) Possible protease IV sppA (Endopeptidase IV)): 1.28 | Mean_Ratio (GDI5755_3d vs DMSO_3d) (protein A0A0H3MB28, BCG_3433c (Rv3361c), Pentapeptide repeat protein MfpA): 0.741 | Mean_Ratio (GDI5755_3d vs DMSO_3d) (protein A0A0H3MB50, BCG_3459 (Rv3390), Probable conserved lipoprotein lpqD): 0.7 | Mean_Ratio (GDI5755_3d vs DMSO_3d) (protein A0A0H3MB93, BCG_3517 (Rv3451), Cutinase): 0.7 | Mean_Ratio (GDI5755_3d vs DMSO_3d) (protein A0A0H3MB98, BCG_1906c (Rv1870c), Endonuclease): 0.7 | Mean_Ratio (GDI5755_3d vs DMSO_3d) (protein A0A0H3MBC9, BCG_3565c (Rv3501c), Conserved hypothetical integral membrane protein yrbE4A): 0.7
